Experimental data as given in PMC11079024, “Identification of a family of species-selective complex I inhibitors as potential anthelmintics” (Nature Communications, 2024).
Like-named read-outs stand apart in the source and are kept apart here.

Target: C. elegans (N2) complex I (NADH:ubiquinone oxidoreductase) (Caenorhabditis elegans, UniProt P24887+Q93873+Q94360)
Experiment: biochemical
Assay type: biochemical
Details: for Log IC50 C. elegans complex I: log10 of IC50 in µM, C. elegans mitochondria; for activity at 0.0001 µM / activity at 0.0005 µM / activity at 0.001 µM / activity at 0.0025 µM / activity at 0.005 µM / activity at 0.013 µM / activity at 0.025 µM / activity at 0.063 µM / activity at 0.125 µM / activity at 0.313 µM / activity at 0.625 µM / activity at 1.5 µM / activity at 3 µM / activity at 15 µM / activity at 37.5 µM / activity at 75 µM: read-out: C. elegans mitochondrial complex I activity
In short: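 Compounds were tested against freeze-thawed isolated mitochondria (0.2 mg/mL protein). NADH:decylubiquinone activity was monitored via DCIP absorbance at 600 nm, and the initial linear slope was normalised to solvent controls.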

[1] = in vitro complex I dose response on C. elegans mitochondria, average of at least two biological replicates, fit in R (DRC), read-out: IC50 C. elegans complex I
[2] = wild-type (N2) mitochondria, read-out: C. elegans Complex I IC50
[3] = wild-type C. elegans mitochondria, estimated from fitted dose-response curves, read-out: C. elegans Complex I IC50
[4] = wild-type C. elegans mitochondria, read-out: C. elegans Complex I IC50
[5] = wild-type C. elegans, individual Rep1-Rep4, read-out: percent in vitro complex I activity relative to solvent control, single replicates
[6] = wild-type C. elegans, mean of Rep1-4, read-out: percent in vitro complex I activity relative to solvent control, Mean

Sequence of C. elegans (N2) complex I (NADH:ubiquinone oxidoreductase) (Q94360 17-199): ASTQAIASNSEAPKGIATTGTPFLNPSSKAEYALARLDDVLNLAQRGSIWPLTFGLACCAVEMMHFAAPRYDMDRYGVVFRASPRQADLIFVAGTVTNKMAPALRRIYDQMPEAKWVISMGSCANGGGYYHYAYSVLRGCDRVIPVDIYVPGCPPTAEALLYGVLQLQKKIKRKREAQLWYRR
Sequence of C. elegans (N2) complex I (NADH:ubiquinone oxidoreductase) (P24887 whole entry): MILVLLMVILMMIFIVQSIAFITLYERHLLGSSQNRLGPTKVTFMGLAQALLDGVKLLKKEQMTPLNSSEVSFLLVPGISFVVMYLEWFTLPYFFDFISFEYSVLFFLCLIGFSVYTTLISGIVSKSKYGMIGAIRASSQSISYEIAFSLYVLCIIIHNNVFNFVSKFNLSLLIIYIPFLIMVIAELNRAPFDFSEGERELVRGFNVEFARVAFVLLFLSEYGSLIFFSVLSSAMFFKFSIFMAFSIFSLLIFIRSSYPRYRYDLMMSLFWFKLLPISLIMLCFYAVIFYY
Sequence of C. elegans (N2) complex I (NADH:ubiquinone oxidoreductase) (Q93873 31-482): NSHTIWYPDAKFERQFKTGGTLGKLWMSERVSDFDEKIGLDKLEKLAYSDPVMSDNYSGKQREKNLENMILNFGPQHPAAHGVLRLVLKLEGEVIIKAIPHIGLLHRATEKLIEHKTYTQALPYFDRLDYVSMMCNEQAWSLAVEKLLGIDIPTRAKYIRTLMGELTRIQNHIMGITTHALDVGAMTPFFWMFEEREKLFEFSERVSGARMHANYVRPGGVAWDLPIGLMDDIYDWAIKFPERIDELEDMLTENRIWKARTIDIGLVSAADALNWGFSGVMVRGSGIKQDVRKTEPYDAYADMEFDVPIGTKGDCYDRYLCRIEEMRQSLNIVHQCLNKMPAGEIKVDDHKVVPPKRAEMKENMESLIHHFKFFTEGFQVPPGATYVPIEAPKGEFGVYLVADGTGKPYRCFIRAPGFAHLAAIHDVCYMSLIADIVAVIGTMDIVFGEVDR

For `Brc1ccc(Cn2cnc3ccccc32)cc1` [Compound 5542661], the IC50 [1] was 530 nM, the “Log IC50 C. elegans complex I” value was -0.28 µM and the IC50 [2] was 530 nM. It also gave an IC50 [3] of 530 nM.
`Cc1nc2ccccc2n1CCOc1ccccc1` [Compound 5550112] was tested, and the activity at 0.0001 µM was 88.8%, the activity at 0.0005 µM was 84.9% and the activity at 0.001 µM was 88.8%. The activity at 0.0025 µM was 93.8%, the activity at 0.005 µM was 86.7% and the activity at 0.013 µM was 87.2%. The activity at 0.025 µM was 83.3%, the activity at 0.063 µM was 78.1% and the activity at 0.125 µM was 80.5%. The activity at 0.313 µM was 78%, the activity at 0.625 µM was 89.4% and the activity at 1.5 µM was 71.3%. For the same compound, the activity at 3 µM was 60.5%, the activity at 15 µM was 24.9% and the activity at 37.5 µM was 11.1%. The activity at 75 µM was 5.83%, the IC50 [1] was 5790 nM and the “Log IC50 C. elegans complex I” value was 0.76 µM. It also gave an IC50 [4] of 5790 nM.
For `Cc1nc2ccccc2n1CCOc1ccccc1Cl` [Compound 5561642], the activity at 0.0001 µM was 91.5%, the activity at 0.0005 µM was 94% and the activity at 0.001 µM was 89.2%. For the same compound, the activity at 0.0025 µM was 95%, the activity at 0.005 µM was 93.1% and the activity at 0.013 µM was 84.7%. It also gave an activity at 0.025 µM of 83.1%, an activity at 0.063 µM of 81.1% and an activity at 0.125 µM of 84.1%. The activity at 0.313 µM was 65.5%, the activity at 0.625 µM was 71.7% and the activity at 1.5 µM was 51.9%. It also gave an activity at 3 µM of 40.7%, an activity at 15 µM of 12.4% and an activity at 37.5 µM of 4.46%. The activity at 75 µM was 4.41%, the IC50 [1] was 2350 nM and the “Log IC50 C. elegans complex I” value was 0.37 µM. The IC50 [4] was 2350 nM.
Work on `Cc1nc2ccccc2n1Cc1ccc(Br)cc1` [Compound 5567167] yielded a remaining activity at 0.0001 µM [5] of 94%, a remaining activity at 0.0001 µM [6] of 85.9% and a remaining activity at 0.0005 µM [5] of 85.1%. It also gave a remaining activity at 0.0005 µM [6] of 85.6%, a remaining activity at 0.001 µM [5] of 85.9% and a remaining activity at 0.001 µM [6] of 84.4%. It also gave a remaining activity at 0.0025 µM (0.0025 µM, wild-type C. elegans, mean of Rep1-4, read-out: percent in vitro complex I activity relative to solvent control, Mean) of 79.7%, a remaining activity at 0.005 µM [5] of 78% and a remaining activity at 0.005 µM [6] of 79.5%. The remaining activity at 0.013 µM [5] was 72.2%, the remaining activity at 0.013 µM [6] was 70.5% and the remaining activity at 0.025 µM [5] was 66.7%. For the same compound, the remaining activity at 0.025 µM [6] was 62%, the remaining activity at 0.063 µM [5] was 38.8% and the remaining activity at 0.063 µM [6] was 36%. For the same compound, the remaining activity at 0.125 µM [5] was 23.6%, the remaining activity at 0.125 µM [6] was 23.7% and the remaining activity at 0.313 µM [5] was 8.78%. For the same compound, the remaining activity at 0.313 µM [6] was 11.9%, the remaining activity at 0.625 µM (0.625 µM, wild-type C. elegans, mean of Rep1-4, read-out: percent in vitro complex I activity relative to solvent control, Mean) was 2.34% and the remaining activity at 1.5 µM (1.5 µM, wild-type C. elegans, mean of Rep1-4, read-out: percent in vitro complex I activity relative to solvent control, Mean) was 0.485%. For the same compound, the remaining activity at 3 µM (3 µM, wild-type C. elegans, mean of Rep1-4, read-out: percent in vitro complex I activity relative to solvent control, Mean) was 0.612%, the remaining activity at 15 µM [5] was 0% and the remaining activity at 15 µM [6] was 0%. For the same compound, the remaining activity at 37.5 µM [5] was 0%, the remaining activity at 37.5 µM [6] was 0% and the remaining activity at 75 µM (75 µM, wild-type C. elegans, mean of Rep1-4, read-out: percent in vitro complex I activity relative to solvent control, Mean) was 0.911%. For the same compound, the IC50 [1] was 32 nM, the “Log IC50 C. elegans complex I” value was -1.49 µM and the IC50 [2] was 32 nM. The IC50 [3] was 32 nM.
`Clc1ccc(Cn2cnc3ccccc32)cc1Cl` [Compound 5571325] was tested, and the activity at 0.0001 µM was 90.4%, the activity at 0.0005 µM was 92.7% and the activity at 0.001 µM was 95.2%. It also gave an activity at 0.0025 µM of 95.4%, an activity at 0.005 µM of 92.8% and an activity at 0.013 µM of 92.4%. It also gave an activity at 0.025 µM of 92.1%, an activity at 0.063 µM of 90.9% and an activity at 0.125 µM of 87.7%. For the same compound, the activity at 0.313 µM was 83.6%, the activity at 0.625 µM was 83% and the activity at 1.5 µM was 69.7%. The activity at 3 µM was 57.2%, the activity at 15 µM was 19% and the activity at 37.5 µM was 8.47%. For the same compound, the activity at 75 µM was 7.02%, the IC50 [1] was 4380 nM and the “Log IC50 C. elegans complex I” value was 0.64 µM. The IC50 [2] was 4380 nM and the IC50 [4] was 4380 nM.
In the case of `Cc1ccc(Cn2c(C)nc3ccccc32)cc1` [Compound 5651984], the IC50 [1] is reported as 180 nM, the “Log IC50 C. elegans complex I” value is reported as -0.74 µM and the IC50 [2] is reported as 180 nM. For the same compound, the IC50 [3] was 180 nM.
For `Nc1nc2ccccc2n1Cc1ccc(Cl)cc1` [Compound 5652765], the activity at 0.0001 µM was 86.1%, the activity at 0.0005 µM was 92.1% and the activity at 0.001 µM was 93.5%. The activity at 0.0025 µM was 93.8%, the activity at 0.005 µM was 90.5% and the activity at 0.013 µM was 90.4%. For the same compound, the activity at 0.025 µM was 78.8%, the activity at 0.063 µM was 76.6% and the activity at 0.125 µM was 72.5%. For the same compound, the activity at 0.313 µM was 39.7%, the activity at 0.625 µM was 49.3% and the activity at 1.5 µM was 25.2%. It also gave an activity at 3 µM of 11.5%, an activity at 15 µM of 0.44% and an activity at 37.5 µM of 0.7%. The activity at 75 µM was 0.75%, the IC50 [1] was 470 nM and the “Log IC50 C. elegans complex I” value was -0.33 µM. For the same compound, the IC50 [2] was 470 nM and the IC50 [3] was 470 nM.
Work on `Cc1nc2ccccc2n1Cc1ccc(Cl)c(Cl)c1` [Compound 5655567] yielded an activity at 0.0001 µM of 86.1%, an activity at 0.0005 µM of 92.1% and an activity at 0.001 µM of 93.5%. For the same compound, the activity at 0.0025 µM was 93.8%, the activity at 0.005 µM was 90.5% and the activity at 0.013 µM was 90.4%. The activity at 0.025 µM was 78.8%, the activity at 0.063 µM was 76.6% and the activity at 0.125 µM was 72.5%. The activity at 0.313 µM was 39.7%, the activity at 0.625 µM was 49.3% and the activity at 1.5 µM was 25.2%. The activity at 3 µM was 11.5%, the activity at 15 µM was 0.44% and the activity at 37.5 µM was 0.7%. The activity at 75 µM was 0.75%, the IC50 [1] was 470 nM and the “Log IC50 C. elegans complex I” value was -0.33 µM. It also gave an IC50 [2] of 470 nM and an IC50 [3] of 470 nM.
`Cc1ccc(OCCn2cnc3ccccc32)cc1` [Compound 5671538] gave an activity at 0.0001 µM of 97.2%, an activity at 0.0005 µM of 96.5% and an activity at 0.001 µM of 95.3%. It also gave an activity at 0.0025 µM of 106%, an activity at 0.005 µM of 90.9% and an activity at 0.013 µM of 104%. For the same compound, the activity at 0.025 µM was 98%, the activity at 0.063 µM was 92.5% and the activity at 0.125 µM was 91.2%. The activity at 0.313 µM was 90%, the activity at 0.625 µM was 88.7% and the activity at 1.5 µM was 79.2%. For the same compound, the activity at 3 µM was 75%, the activity at 15 µM was 18.9% and the activity at 37.5 µM was 23.9%. The activity at 75 µM was 13.8%, the IC50 [1] was 5330 nM and the “Log IC50 C. elegans complex I” value was 0.73 µM. The IC50 [4] was 5330 nM.
With `Nc1nc2ccccc2n1CCOc1ccc(Br)cc1` [Compound 5842535] the activity at 0.0001 µM was 80%, the activity at 0.0005 µM was 92.9% and the activity at 0.001 µM was 87.5%. For the same compound, the activity at 0.0025 µM was 88.5%, the activity at 0.005 µM was 89.3% and the activity at 0.013 µM was 88.3%. The activity at 0.025 µM was 81.7%, the activity at 0.063 µM was 79.5% and the activity at 0.125 µM was 81.6%. For the same compound, the activity at 0.313 µM was 76.9%, the activity at 0.625 µM was 83.9% and the activity at 1.5 µM was 76.4%. For the same compound, the activity at 3 µM was 65%, the activity at 15 µM was 17.8% and the activity at 37.5 µM was 0.13%. The activity at 75 µM was 0%, the IC50 [1] was 6200 nM and the “Log IC50 C. elegans complex I” value was 0.79 µM. The IC50 [4] was 6200 nM.
